Assay results reported in ChEMBL document CHEMBL3616410, “Linked pyridinyl-thiadiazoles: Design and synthesis as potential candidate for treatment of XDR and MDR tuberculosis” (Eur J Med Chem, 2015).
In brackets after ≈: the same amount, converted by molar mass.

Columns and labels:
[1] = tested on: Mycobacterium tuberculosis; assay: Bactericidal activity against Mycobacterium tuberculosis H37Rv ATCC 27294 after 5 days by spectrophotometry; type: functional
[2] = tested on: Mycobacterium tuberculosis; assay: Antimycobacterial activity against Mycobacterium tuberculosis H37Rv ATCC 27294 after 5 days by spectrophotometry; type: functional; details: H37Rv ATCC 27294, 120 h
[3] = Cytotoxicity against human HepG2 cells after 3 days; type: cell-based
[4] = Cytotoxicity against hamster BHK21 cells after 3 days; type: cell-based, Mesocricetus auratus, BHK-21
[5] = tested on: Mycobacterium tuberculosis; assay: Antimycobacterial activity against Mycobacterium tuberculosis TN675 after 5 days by spectrophotometry; type: functional; details: TN675, 120 h
[6] = tested on: Mycobacterium tuberculosis; assay: Antimycobacterial activity against Mycobacterium tuberculosis TN913 after 5 days by spectrophotometry; type: functional; details: TN913, 120 h
[7] = tested on: Mycobacterium tuberculosis; assay: Antimycobacterial activity against Mycobacterium tuberculosis TN994 after 5 days by spectrophotometry; type: functional; details: TN994, 120 h
[8] = tested on: Mycobacterium tuberculosis; assay: Antimycobacterial activity against Mycobacterium tuberculosis TN1008 after 5 days by spectrophotometry; type: functional; details: TN1008, 120 h
[9] = tested on: Mycobacterium tuberculosis; assay: Antimycobacterial activity against Mycobacterium tuberculosis TN1037 after 5 days by spectrophotometry; type: functional; details: TN1037, 120 h
[10] = tested on: Mycobacterium tuberculosis; assay: Antimycobacterial activity against Mycobacterium tuberculosis TN1040 after 5 days by spectrophotometry; type: functional; details: TN1040, 120 h
[11] = tested on: Mycobacterium tuberculosis; assay: Antimycobacterial activity against Mycobacterium tuberculosis TN1051 after 5 days by spectrophotometry; type: functional; details: TN1051, 120 h
[12] = tested on: Mycobacterium tuberculosis; assay: Antimycobacterial activity against Mycobacterium tuberculosis TN1082 after 5 days by spectrophotometry; type: functional; details: TN1082, 120 h
[13] = tested on: Mycobacterium tuberculosis; assay: Antimycobacterial activity against Mycobacterium tuberculosis TN2351 after 5 days by spectrophotometry; type: functional; details: TN2351, 120 h
[14] = tested on: Mycobacterium tuberculosis; assay: Antimycobacterial activity against Mycobacterium tuberculosis TN2524 after 5 days by spectrophotometry; type: functional; details: TN2524, 120 h
[15] = tested on: Mycobacterium tuberculosis; assay: Antimycobacterial activity against Mycobacterium tuberculosis TN3183 after 5 days by spectrophotometry; type: functional; details: TN3183, 120 h
[16] = tested on: Mycobacterium tuberculosis; assay: Antimycobacterial activity against Mycobacterium tuberculosis TN3979 after 5 days by spectrophotometry; type: functional; details: TN3979, 120 h
[17] = tested on: Mycobacterium tuberculosis; assay: Antimycobacterial activity against Mycobacterium tuberculosis TN4259 after 5 days by spectrophotometry; type: functional; details: TN4259, 120 h
[18] = tested on: Mycobacterium tuberculosis; assay: Antimycobacterial activity against Mycobacterium tuberculosis AH9584 after 5 days by spectrophotometry; type: functional; details: AH9584, 120 h
[19] = tested on: Mycobacterium tuberculosis; assay: Antimycobacterial activity against Mycobacterium tuberculosis BE11677 after 5 days by spectrophotometry; type: functional; details: BE11677, 120 h
[20] = tested on: Mycobacterium tuberculosis; assay: Antimycobacterial activity against Mycobacterium tuberculosis E8133 after 5 days by spectrophotometry; type: functional; details: E8133, 120 h
[21] = tested on: Mycobacterium tuberculosis; assay: Antimycobacterial activity against Mycobacterium tuberculosis W4 after 5 days by spectrophotometry; type: functional; details: W4, 120 h

Structure (SMILES) | MBC90 [1] [µM] | MIC50 [2] [µM] | CC50 at 72 h [3] [µM] | CC50 at 72 h [4] [µM] | other results
CC(CSc1nnc(-c2ccncc2)s1)C(=O)Nc1ccc(Cl)cc1Cl (centres undefined) | 5 (≈ 2.13 µg/mL) | 1.48 (≈ 0.63 µg/mL) | > 50 | > 50 | 
O=C(CCSc1nnc(-c2ccncc2)s1)NCc1ccccc1Cl | 2.5 (≈ 0.977 µg/mL) | 0.65 (≈ 0.254 µg/mL) | > 50 | > 50 | 
CC(Sc1nnc(-c2ccncc2)s1)C(=O)Nc1ccccc1 (centres undefined) | 5 (≈ 1.71 µg/mL) | 1.48 (≈ 0.507 µg/mL) | > 50 | > 50 | 
O=C(CCSc1nnc(-c2ccncc2)s1)Nc1c(Cl)cccc1Cl | 2.5 (≈ 1.03 µg/mL) | 0.59 (≈ 0.243 µg/mL) | 12.6 | 10.3 | 
O=C(CCSc1nnc(-c2ccncc2)s1)Nc1ccc(Cl)cc1Cl | 2.5 (≈ 1.03 µg/mL) | 0.55 (≈ 0.226 µg/mL) | > 50 | > 50 | 
CC(Sc1nnc(-c2ccncc2)s1)C(=O)NCc1ccccc1Cl (centres undefined) | 5 (≈ 1.95 µg/mL) | 1.26 (≈ 0.493 µg/mL) | > 50 | > 50 | 
NNC(=O)c1ccncc1 [ISONIAZID] |  | 0.03 (≈ 0.00411 µg/mL) |  |  | MIC [2]: 0.03 µg/mL (≈ 0.219 µM); MIC [5]: 0.03 µg/mL (≈ 0.219 µM); MIC [6]: 0.03 µg/mL (≈ 0.219 µM); MIC [7]: 0.03 µg/mL (≈ 0.219 µM); MIC [8]: 0.06 µg/mL (≈ 0.438 µM); MIC [9]: 0.03 µg/mL (≈ 0.219 µM); MIC [10]: 0.03 µg/mL (≈ 0.219 µM); MIC [11]: 0.03 µg/mL (≈ 0.219 µM); MIC [12]: 0.03 µg/mL (≈ 0.219 µM); MIC [13]: 0.06 µg/mL (≈ 0.438 µM); MIC [14]: 0.06 µg/mL (≈ 0.438 µM); MIC [15]: 0.03 µg/mL (≈ 0.219 µM); MIC [16]: 0.06 µg/mL (≈ 0.438 µM); MIC [17]: 0.03 µg/mL (≈ 0.219 µM); MIC [18]: 0.19 µg/mL (≈ 1.39 µM); MIC [19]: 0.2 µg/mL (≈ 1.46 µM); MIC [20]: 0.08 µg/mL (≈ 0.583 µM); MIC [21]: 0.03 µg/mL (≈ 0.219 µM)
O=C(CCSc1nnc(-c2ccncc2)s1)NCc1ccc(Cl)cc1 | 2.5 (≈ 0.977 µg/mL) | 0.63 (≈ 0.246 µg/mL) | 15.6 | 21.5 | 
O=C(CCSc1nnc(-c2ccncc2)s1)NCc1ccccc1 | 2.5 (≈ 0.891 µg/mL) | 0.67 (≈ 0.239 µg/mL) | 14 | 18.7 | 
O=C(CCSc1nnc(-c2ccncc2)s1)Nc1ccccc1 | 2.5 (≈ 0.856 µg/mL) | 0.61 (≈ 0.209 µg/mL) | > 50 | > 50 | 
O=C(CSc1nnc(-c2ccncc2)s1)Nc1c(Cl)cccc1Cl |  | > 20 |  |  | 
CC(Sc1nnc(-c2ccncc2)s1)C(=O)Nc1c(Cl)cccc1Cl (centres undefined) | 5 (≈ 2.06 µg/mL) | 1.19 (≈ 0.489 µg/mL) | > 50 | > 50 | 
O=C(CSc1nnc(-c2ccncc2)s1)NCc1ccc(Cl)cc1 |  | 11.7 (≈ 4.42 µg/mL) | > 50 | > 50 | 
CC(CSc1nnc(-c2ccncc2)s1)C(=O)Nc1c(Cl)cccc1Cl (centres undefined) | 5 (≈ 2.13 µg/mL) | 1.55 (≈ 0.659 µg/mL) | > 50 | > 50 | 
CC(Sc1nnc(-c2ccncc2)s1)C(=O)Nc1ccccc1Cl (centres undefined) | 5 (≈ 1.88 µg/mL) | 1.04 (≈ 0.392 µg/mL) | > 50 | > 50 | 
CC(CSc1nnc(-c2ccncc2)s1)C(=O)NCc1ccccc1 (centres undefined) | 5 (≈ 1.85 µg/mL) | 2.51 (≈ 0.93 µg/mL) | > 50 | > 50 | 
S=c1[nH]nc(-c2ccncc2)s1 | 1.25 (≈ 0.244 µg/mL) | 0.2 (≈ 0.0391 µg/mL) | 19.7 | 14.7 | 
